Tests used:
NLRP3 [1] = molecular target: T1, NLRP3 (Homo sapiens, UniProt Q96P20); experiment: streptavidin pull-down from HEK-293T lysates, Western blot; format: cell-based; set-up: Flag-NLRP3; Flag-NLRP3 (NACHT: 220-536aa); Flag-NLRP3 (LRR: 742-991aa)
Target sequence in this assay (Q96P20 220-536): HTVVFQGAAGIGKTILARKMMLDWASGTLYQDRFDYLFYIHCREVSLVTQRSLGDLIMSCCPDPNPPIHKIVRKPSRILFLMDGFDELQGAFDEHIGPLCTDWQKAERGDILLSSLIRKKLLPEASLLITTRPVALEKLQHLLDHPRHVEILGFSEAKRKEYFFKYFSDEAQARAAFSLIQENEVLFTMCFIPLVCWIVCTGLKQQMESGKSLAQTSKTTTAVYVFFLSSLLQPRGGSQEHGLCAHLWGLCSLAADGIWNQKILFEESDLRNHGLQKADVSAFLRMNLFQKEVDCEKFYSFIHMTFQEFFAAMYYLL

NLRP3 [2] = molecular target: T1, NLRP3; experiment: SPR, NLRP3 immobilized on CM5 chip, […] binding model; set-up: Recombinant human NLRP3 protein (CUSBIO, #CSB-EP822275HU3)
Target sequence in this assay (Q96P20 whole entry): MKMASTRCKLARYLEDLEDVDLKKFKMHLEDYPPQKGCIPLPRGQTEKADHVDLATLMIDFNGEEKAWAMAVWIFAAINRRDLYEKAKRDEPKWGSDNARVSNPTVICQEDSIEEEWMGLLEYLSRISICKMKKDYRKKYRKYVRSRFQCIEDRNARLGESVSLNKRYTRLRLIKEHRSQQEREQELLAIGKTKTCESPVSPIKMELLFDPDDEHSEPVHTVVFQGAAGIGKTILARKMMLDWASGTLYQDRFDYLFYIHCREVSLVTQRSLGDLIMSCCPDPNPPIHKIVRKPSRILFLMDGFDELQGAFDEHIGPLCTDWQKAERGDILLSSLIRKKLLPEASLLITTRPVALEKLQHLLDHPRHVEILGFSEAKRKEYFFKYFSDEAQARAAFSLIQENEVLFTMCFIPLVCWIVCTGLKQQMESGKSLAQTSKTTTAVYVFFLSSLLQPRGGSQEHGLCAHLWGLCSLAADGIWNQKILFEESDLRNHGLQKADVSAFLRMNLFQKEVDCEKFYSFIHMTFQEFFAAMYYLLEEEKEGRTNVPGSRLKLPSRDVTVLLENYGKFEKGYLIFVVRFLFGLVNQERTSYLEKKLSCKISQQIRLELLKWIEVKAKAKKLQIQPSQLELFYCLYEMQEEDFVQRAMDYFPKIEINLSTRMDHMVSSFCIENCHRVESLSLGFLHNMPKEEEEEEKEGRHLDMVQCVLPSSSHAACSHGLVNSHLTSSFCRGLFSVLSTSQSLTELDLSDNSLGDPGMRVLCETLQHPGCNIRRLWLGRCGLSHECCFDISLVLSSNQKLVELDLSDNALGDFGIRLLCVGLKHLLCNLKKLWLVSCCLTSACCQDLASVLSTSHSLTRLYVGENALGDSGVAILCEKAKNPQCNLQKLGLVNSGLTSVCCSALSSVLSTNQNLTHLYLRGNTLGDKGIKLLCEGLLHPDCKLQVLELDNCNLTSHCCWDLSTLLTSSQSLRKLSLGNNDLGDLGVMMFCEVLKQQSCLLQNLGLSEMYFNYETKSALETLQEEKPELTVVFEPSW

Row | Compound | streptavidin pull-down from HEK-293T lysates, Western blot (NLRP3 [1]) | Kd (NLRP3 [2])
1 | O=C1N[C@H]2[C@H](CS[C@H]2CCCCC(=O)Oc2c3occc3cc3ccc(=O)oc23)N1 [Biotinylated-Psoralen] | Streptavidin pull-down assays showed that Bio-Pso specifically bound to the NACHT and LRR domains, but not the PYD domain | –
2 | O=c1c2ccccc2nc2n1CCc1c-2[nH]c2ccccc12 [S2349] | – | 146 µM
3 | O=c1ccc2cc3ccoc3cc2o1 [S4737, Psoralen] | – | 209 µM

From publication PMC11881452, “Inactivation of NLRP3 inflammasome by dephosphorylation at Serine 658 alleviates glial inflammation in the mouse model of Parkinson’s disease” (Molecular Neurodegeneration, 2025)
